Data: the supplement of paper PMC10307832

Experiments:
Assay in all cases: relative viability (nuclei count vs DMSO), 5 days (fraction); higher = more cells survive
EKVX = tested on: EKVX
Outline: (§1)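 Lung cancer cell lines were pin-tool dosed in 1536-well plates on the day after seeding, with either a lone drug or a fixed anchor-drug dose plus five library-drug doses (not always all listed) in √10 steps. Nuclei were counted on 4× images after 5 days. Relative viability is the ratio of treated-well to vehicle-well nuclei counts, with each value a median of duplicate plates.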

LCLC-97TM1 = tested on: LCLC-97TM1
Outline: as §1

NCI-H1437 = tested on: NCI-H1437
Outline: as §1

NCI-H1650 = tested on: NCI-H1650
Outline: as §1

NCI-H1666 = tested on: NCI-H1666
Outline: as §1

NCI-H1792 = tested on: NCI-H1792
Outline: as §1

NCI-H1915 = tested on: NCI-H1915
Outline: as §1

NCI-H1975 = tested on: NCI-H1975
Outline: as §1

NCI-H2342 = tested on: NCI-H2342
Outline: as §1

NCI-H23 = tested on: NCI-H23
Outline: as §1

NCI-H322M = tested on: NCI-H322M
Outline: as §1

NCI-H358 = tested on: NCI-H358
Outline: as §1

NCI-H441 = tested on: NCI-H441
Outline: as §1

NCI-H460 = tested on: NCI-H460
Outline: as §1

NCI-H520 = tested on: NCI-H520
Outline: as §1

NCI-H522 = tested on: NCI-H522
Outline: as §1

NCI-H596 = tested on: NCI-H596
Outline: as §1

NCI-H647 = tested on: NCI-H647
Outline: as §1

NCI-H661 = tested on: NCI-H661
Outline: as §1

NCI-H727 = tested on: NCI-H727
Outline: as §1

NCI-H838 = tested on: NCI-H838
Outline: as §1

PC-3 [JPC-3] = tested on: PC-3 [JPC-3]
Outline: as §1

SK-LU-1 = tested on: SK-LU-1
Outline: as §1

Cc1csc(=NC2CCCCC2)n1/N=C/c1ccc(O)c(O)c1O [MIM1] + CC(=O)Nc1cccc(-n2c(=O)n(C3CC3)c(=O)c3c(Nc4ccc(I)cc4F)n(C)c(=O)c(C)c32)c1 [Trametinib] (partner 0.02 µM)
relative viability (EKVX; first compound 0.2 µM): 0.304
relative viability (EKVX; first compound 0.6325 µM): 0.287
relative viability (EKVX; first compound 2 µM): 0.289
relative viability (EKVX; first compound 6.325 µM): 0.267
relative viability (EKVX; first compound 20 µM): 0.269
relative viability (LCLC-97TM1; first compound 0.2 µM): 0.207
relative viability (LCLC-97TM1; first compound 0.6325 µM): 0.218
relative viability (LCLC-97TM1; first compound 2 µM): 0.217
relative viability (LCLC-97TM1; first compound 6.325 µM): 0.196
relative viability (LCLC-97TM1; first compound 20 µM): 0.0682
relative viability (NCI-H1437; first compound 0.2 µM): 0.454
relative viability (NCI-H1437; first compound 0.6325 µM): 0.475
relative viability (NCI-H1437; first compound 2 µM): 0.456
relative viability (NCI-H1437; first compound 6.325 µM): 0.239
relative viability (NCI-H1437; first compound 20 µM): 0.237
relative viability (NCI-H1650; first compound 0.2 µM): 0.697
relative viability (NCI-H1650; first compound 0.6325 µM): 0.619
relative viability (NCI-H1650; first compound 2 µM): 0.424
relative viability (NCI-H1650; first compound 6.325 µM): 0.182
relative viability (NCI-H1650; first compound 20 µM): 0.138
relative viability (NCI-H1666; first compound 0.2 µM): 0.929
relative viability (NCI-H1666; first compound 0.6325 µM): 0.833
relative viability (NCI-H1666; first compound 2 µM): 0.847
relative viability (NCI-H1666; first compound 6.325 µM): 0.826
relative viability (NCI-H1666; first compound 20 µM): 0.426
relative viability (NCI-H1792; first compound 0.2 µM): 0.4
relative viability (NCI-H1792; first compound 0.6325 µM): 0.376
relative viability (NCI-H1792; first compound 2 µM): 0.456
relative viability (NCI-H1792; first compound 6.325 µM): 0.384
relative viability (NCI-H1792; first compound 20 µM): 0.325
relative viability (NCI-H1915; first compound 0.2 µM): 0.31
relative viability (NCI-H1915; first compound 0.6325 µM): 0.27
relative viability (NCI-H1915; first compound 2 µM): 0.279
relative viability (NCI-H1915; first compound 6.325 µM): 0.314
relative viability (NCI-H1915; first compound 20 µM): 0.357
relative viability (NCI-H1975; first compound 0.2 µM): 0.366
relative viability (NCI-H1975; first compound 0.6325 µM): 0.372
relative viability (NCI-H1975; first compound 2 µM): 0.376
relative viability (NCI-H1975; first compound 6.325 µM): 0.208
relative viability (NCI-H1975; first compound 20 µM): 0.123
relative viability (NCI-H2342; first compound 0.2 µM): 0.842
relative viability (NCI-H2342; first compound 0.6325 µM): 0.903
relative viability (NCI-H2342; first compound 2 µM): 0.787
relative viability (NCI-H2342; first compound 6.325 µM): 0.716
relative viability (NCI-H2342; first compound 20 µM): 1.1
relative viability (NCI-H23; first compound 0.2 µM): 0.407
relative viability (NCI-H23; first compound 0.6325 µM): 0.342
relative viability (NCI-H23; first compound 2 µM): 0.326
relative viability (NCI-H23; first compound 6.325 µM): 0.312
relative viability (NCI-H23; first compound 20 µM): 0.163
relative viability (NCI-H322M; first compound 0.2 µM): 0.508
relative viability (NCI-H322M; first compound 0.6325 µM): 0.596
relative viability (NCI-H322M; first compound 2 µM): 0.456
relative viability (NCI-H322M; first compound 6.325 µM): 0.526
relative viability (NCI-H322M; first compound 20 µM): 0.577
relative viability (NCI-H358; first compound 0.2 µM): 0.149
relative viability (NCI-H358; first compound 0.6325 µM): 0.15
relative viability (NCI-H358; first compound 2 µM): 0.119
relative viability (NCI-H358; first compound 6.325 µM): 0.116
relative viability (NCI-H358; first compound 20 µM): 0.133
relative viability (NCI-H441; first compound 0.2 µM): 0.558
relative viability (NCI-H441; first compound 0.6325 µM): 0.409
relative viability (NCI-H441; first compound 2 µM): 0.484
relative viability (NCI-H441; first compound 6.325 µM): 0.302
relative viability (NCI-H441; first compound 20 µM): 0.211
relative viability (NCI-H460; first compound 0.2 µM): 0.103
relative viability (NCI-H460; first compound 0.6325 µM): 0.136
relative viability (NCI-H460; first compound 2 µM): 0.118
relative viability (NCI-H460; first compound 6.325 µM): 0.0462
relative viability (NCI-H460; first compound 20 µM): 0.0293
relative viability (NCI-H520; first compound 0.2 µM): 0.625
relative viability (NCI-H520; first compound 0.6325 µM): 0.707
relative viability (NCI-H520; first compound 2 µM): 0.652
relative viability (NCI-H520; first compound 6.325 µM): 0.529
relative viability (NCI-H520; first compound 20 µM): 0.289
relative viability (NCI-H522; first compound 0.2 µM): 0.727
relative viability (NCI-H522; first compound 0.6325 µM): 0.654
relative viability (NCI-H522; first compound 2 µM): 0.834
relative viability (NCI-H522; first compound 6.325 µM): 0.897
relative viability (NCI-H522; first compound 20 µM): 0.675
relative viability (NCI-H596; first compound 0.2 µM): 0.702
relative viability (NCI-H596; first compound 0.6325 µM): 0.95
relative viability (NCI-H596; first compound 2 µM): 0.745
relative viability (NCI-H596; first compound 6.325 µM): 0.667
relative viability (NCI-H596; first compound 20 µM): 0.56
relative viability (NCI-H647; first compound 0.2 µM): 0.435
relative viability (NCI-H647; first compound 0.6325 µM): 0.567
relative viability (NCI-H647; first compound 2 µM): 0.415
relative viability (NCI-H647; first compound 6.325 µM): 0.413
relative viability (NCI-H647; first compound 20 µM): 0.18
relative viability (NCI-H661; first compound 0.2 µM): 0.607
relative viability (NCI-H661; first compound 0.6325 µM): 0.587
relative viability (NCI-H661; first compound 2 µM): 0.554
relative viability (NCI-H661; first compound 6.325 µM): 0.406
relative viability (NCI-H661; first compound 20 µM): 0.348
relative viability (NCI-H727; first compound 0.2 µM): 0.371
relative viability (NCI-H727; first compound 0.6325 µM): 0.407
relative viability (NCI-H727; first compound 2 µM): 0.393
relative viability (NCI-H727; first compound 6.325 µM): 0.427
relative viability (NCI-H727; first compound 20 µM): 0.383
relative viability (NCI-H838; first compound 0.2 µM): 0.463
relative viability (NCI-H838; first compound 0.6325 µM): 0.572
relative viability (NCI-H838; first compound 2 µM): 0.544
relative viability (NCI-H838; first compound 6.325 µM): 0.353
relative viability (NCI-H838; first compound 20 µM): 0.178
relative viability (PC-3 [JPC-3]; first compound 0.2 µM): 0.643
relative viability (PC-3 [JPC-3]; first compound 0.6325 µM): 0.687
relative viability (PC-3 [JPC-3]; first compound 2 µM): 0.655
relative viability (PC-3 [JPC-3]; first compound 6.325 µM): 0.521
relative viability (PC-3 [JPC-3]; first compound 20 µM): 0.558
relative viability (SK-LU-1; first compound 0.2 µM): 0.471
relative viability (SK-LU-1; first compound 0.6325 µM): 0.528
relative viability (SK-LU-1; first compound 2 µM): 0.516
relative viability (SK-LU-1; first compound 6.325 µM): 0.459
relative viability (SK-LU-1; first compound 20 µM): 0.202
